Read-outs that look alike come from different tables or passages of the source.
What was measured:
[1] = molecular target: T1, catalytic domain of human SHP2 (Homo sapiens, UniProt Q06124); assay: Enzyme activity assay of SHP2 catalytic domain with fluorogenic substrate DiFMUP; format: biochemical
T1 construct: catalytic domain of human SHP2 (amino acids 225–541); His10 (N); made in house; host or cells: E. coli B21 (DE3)
T1 sequence (Q06124 225-541): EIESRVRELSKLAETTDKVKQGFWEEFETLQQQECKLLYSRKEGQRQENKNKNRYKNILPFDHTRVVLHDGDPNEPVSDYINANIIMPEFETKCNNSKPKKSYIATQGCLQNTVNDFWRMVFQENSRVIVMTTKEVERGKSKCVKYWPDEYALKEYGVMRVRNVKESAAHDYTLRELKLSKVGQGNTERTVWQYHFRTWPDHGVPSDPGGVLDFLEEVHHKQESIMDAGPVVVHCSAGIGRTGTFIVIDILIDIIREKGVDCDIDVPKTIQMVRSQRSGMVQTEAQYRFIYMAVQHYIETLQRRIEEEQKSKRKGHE
Protocol: Enzyme activity assays of SHP2 and PTP1B: The catalytic activity of SHP2 catalytic domain and PTP1B were monitored using the fluorogenic substrate DiFMUP (6,8‐difluoro‐4‐methylumbelliferyl phosphate). Phosphatase reactions were performed at room temperature in 384‐well black plate, clear flat bottom, low flange, non‐binding surface (Corning, Cat# 3766) using a final volume of 20 μL and the following assay buffer conditions: 50 mM MOPS, pH=6.5, 200 mM NaCl, 50 μM TCEP, 0.03 % Tween‐20 (freshly added prior to each measurement). Test compounds were dissolved in DMSO or buffer at stock concentrations of 50, 20 or 10 mM and serially diluted. Enzyme (5 nM PTP1B or 2.5 nM SHP2 catalytic domain) and different concentrations of the tested compounds were incubated in buffer for 30–60 min at room temperature. […] Enzymatic reactions were started by adding DiFMUP (Invitrogen, cat# D6567) concentrations matching the experimentally determined KM values of the enzymes of 67 μM (PTP1B) or 72 μM (SHP2). Samples were excited at a wavelength of 360 nm and emitted fluorescence was recorded at 460 for 10 min using a microplate reader (infinite M1000 Pro, Tecan). Initial slope of fluorescence was determined in triplicate and IC50 values were calculated with GraphPad Prism 5. Determined IC50 values were converted into the corresponding KI values applying the Cheng Prusoff equation KI =IC50 /(1+[S]/KM ).

[2] = system: HGF‐induced tyrosine phosphorylation of ERK 1/2 in HeLa cells; assay: Western blot of p-ERK in HGF-stimulated HeLa cells; format: cell-based; settings: 1 h treatment; for Concentration giving (complete) dephosphorylation of Erk / inhibition of Erk phosphorylation: HGF 20 ng/well, Western blot p-ERK
Protocol: Cellular experiments: HeLa cells were cultivated in DMEM buffer with 10 % FCS in 75 cm^2 cell culture flasks at 37 °C, 5 % CO2. At confluency of about 75 %, cells were seeded in a density of 250,000 cells/mL in 6‐well plates and incubated for 24 h. Subsequently, medium was removed and replaced by DMEM buffer with 0.1 % BSA (1 mL per well) and incubated for another 16 h. Hepatocyte growth factor (HGF, 20 ng/well) and test compounds in different final concentrations (1 μL, in DMSO) were added. Control wells received the same amount of DMSO (final concentration 0.1 %) or no addition. Plates were incubated for 1 h, then washed with cold PBS and shaken with lysis buffer (mPer reagent ThermoScientific # 78501 with 1 mM NaF, 2 mM Na3VO4, 25× protease inhibitor) for 5 min. Cell lysates were transferred to Eppendorf cups and centrifuged at 4 °C with 10,000 g for 10 min. […] The blot was incubated with anti‐phospo‐ERK as primary antibody (Cell Signaling # 9106, dilution 1 : 2000 in TBS‐Tween/ 2 % BSA) overnight at 4 °C, washed 3×5 min with TBS‐Tween, and incubated with anti‐mouse IgG‐hrp as secondary antibody (Santa Cruz # sc2031, 1 : 6000 in TBS‐ Tween/ 2 % BSA, RT, 1.5 h). The blot was again washed 3×5 min with TBS‐Tween and imaged with the ECL system (ThermoScientific # 34080) at Syngene PXi Imager. From the same lysis sample, under the same conditions, ERK 1/2 and β‐tubulin were blotted. For β‐tubulin, the antibody incubation time was adjusted to 2 h at RT.

[3] = molecular target: T2, PTP1B (Homo sapiens, UniProt P18031); assay: Dynamic ligation screening of nucleophilic fragments with formylglycine peptide 3, PTP1B; format: biochemical; settings: 3 100 μM pre-incubated 5 min, fragment 200 μM, 30 min RT before DiFMUP, triplicates
T2 construct: catalytic domain of human PTP1B (amino acids 1–321); His7 (N, cleaved yes); made in house; host or cells: E. coli Rosetta (DE3)
T2 sequence (P18031 1-321): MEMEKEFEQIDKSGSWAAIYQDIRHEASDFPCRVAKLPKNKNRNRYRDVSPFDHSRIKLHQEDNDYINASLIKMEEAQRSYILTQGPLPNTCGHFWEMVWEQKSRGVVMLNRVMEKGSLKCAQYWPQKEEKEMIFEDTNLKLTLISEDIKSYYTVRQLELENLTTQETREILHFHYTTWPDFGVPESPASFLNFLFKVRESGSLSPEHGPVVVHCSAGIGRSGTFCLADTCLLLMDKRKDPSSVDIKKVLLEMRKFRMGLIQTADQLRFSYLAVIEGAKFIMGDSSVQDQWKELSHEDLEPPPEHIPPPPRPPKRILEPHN
Protocol: Enzyme activity assays of SHP2 and PTP1B: The catalytic activity of SHP2 catalytic domain and PTP1B were monitored using the fluorogenic substrate DiFMUP (6,8‐difluoro‐4‐methylumbelliferyl phosphate). Phosphatase reactions were performed at room temperature in 384‐well black plate, clear flat bottom, low flange, non‐binding surface (Corning, Cat# 3766) using a final volume of 20 μL and the following assay buffer conditions: 50 mM MOPS, pH=6.5, 200 mM NaCl, 50 μM TCEP, 0.03 % Tween‐20 (freshly added prior to each measurement). Test compounds were dissolved in DMSO or buffer at stock concentrations of 50, 20 or 10 mM and serially diluted. Enzyme (5 nM PTP1B or 2.5 nM SHP2 catalytic domain) and different concentrations of the tested compounds were incubated in buffer for 30–60 min at room temperature. Measurements were performed with a final concentration of 2.5 % DMSO unless stated otherwise at 37 °C and were performed in triplicate. Enzymatic reactions were started by adding DiFMUP (Invitrogen, cat# D6567) concentrations matching the experimentally determined KM values of the enzymes of 67 μM (PTP1B) or 72 μM (SHP2). Samples were excited at a wavelength of 360 nm and emitted fluorescence was recorded at 460 for 10 min using a microplate reader (infinite M1000 Pro, Tecan). Initial slope of fluorescence was determined in triplicate and IC50 values were calculated with GraphPad Prism 5. Determined IC50 values were converted into the corresponding KI values applying the Cheng Prusoff equation KI =IC50 /(1+[S]/KM ).
Dynamic ligation screening of nucleophilic fragments with 3: Under assay conditions described above, PTP1B or SHP2 were pre‐incubated with 3 (100 μM) for 5 min. Subsequently, (200 μM) of the respective fragments were added and the resulting mixtures were incubated for 30 min at RT, prior to DiFMUP addition.

| Compound | Enhancement of inhibition of PTP1B by fragment in combination with peptide 3 (fragment ligation assay) [3] | also measured |
| --- | --- | --- |
| O=C1/C(=N\Nc2ccc(NS(=O)(=O)C(F)(F)F)cc2)C(c2ccc([N+](=O)[O-])cc2)=NN1c1ccc([N+](=O)[O-])cc1 [Compound 22] |  | Ki ([1]; DiFMUP 72 μM (= KM), enzyme 1.5 nM, triplicate, from IC50 by Cheng-Prusoff (IC50/2), read-out: KI SHP2 (Table 2, footnote a)): 5.9 µM; Effect on HGF‐induced tyrosine phosphorylation of ERK 1/2 ([2]; Western blot, DMSO control): decreased; Concentration giving (complete) dephosphorylation of Erk / inhibition of Erk phosphorylation [2]: 25 µM |
| O=C(O)COc1ccc(N/N=C2\C(=O)N(c3ccc([N+](=O)[O-])cc3)N=C2c2ccc([N+](=O)[O-])cc2)cc1 [Compound 23, (Z)‐2‐(4‐(2‐(1,3‐Bis‐(4‐nitrophenyl)‐5‐oxo‐1,5‐dihydro‐4H‐pyrazol‐4‐ylidene)‐hydrazinyl)‐phenoxy)‐acetic acid] |  | Ki ([1]; catalytic domain of SHP2, DiFMUP, from IC50 by Cheng-Prusoff, GS-493 sentence carries ref 26, read-out: KI SHP2): 0.275 µM; Concentration giving (complete) dephosphorylation of Erk / inhibition of Erk phosphorylation [2]: > 100 µM |
| Nc1ccc(C(=O)O)cc1 [Compound F5, 4‐amino benzoic acid] | inactive |  |
| Nc1ccc(C(F)(F)F)cc1 [Compound F8, 4‐amino‐phenyl‐trifluoromethane] | inactive |  |
| O=P(O)(O)C(F)(F)C1CCNCC1 [Compound F9, 4‐piperidinyl‐difluoromethyl phosphonate] | inactive |  |
| Nc1ccccc1 [aniline, reference compound] | entirely inactive |  |
| N‐(4‐aminophenyl)‐sulfonic acid [Compound F6] | inactive |  |
